Reference: patent publication US4329339A, “Anthracyclinones and derivatives thereof” (Hoffmann-La Roche Inc., priority 1980, dated 1982)
Values after ≈ are worked out from the molar mass of the structure shown. Where two headings read alike, the source gives them in different places.

How the values were obtained:
Bacillus cereus Ro 179B = assay: MIC, agar streak method, Bacillus cereus Ro 179B; format: cell-based; conditions: RO179B, Heart infusion agar
Excerpt: (§1) | (1) Heart infusion agar

[1] = tested on: Bacillus subtilis IAM 1027; assay: MIC, agar streak method, Bacillus subtilis IAM 1027; format: cell-based; conditions: IAM1027, Heart infusion agar
Excerpt: as §1

Sarcina lutea IAM 1009 = assay: MIC, agar streak method, Sarcina lutea IAM 1009; format: cell-based; conditions: Micrococcus luteus, IAM1009, Heart infusion agar
Excerpt: as §1

[2] = tested on: Staphylococcus aureus 209P IAM 1011; assay: MIC, agar streak method, Staphylococcus aureus 209P IAM 1011; format: cell-based; conditions: Heart infusion agar
Excerpt: as §1

[3] = tested on: Staphylococcus aureus 209P Stf; assay: MIC, agar streak method, Staphylococcus aureus 209P Stf; format: cell-based
[4] = tested on: Staphylococcus epidermidis IFO 12993; assay: MIC, agar streak method, Staphylococcus epidermidis IFO 12993; format: cell-based; conditions: IFO12993, Heart infusion agar
Excerpt: as §1

[5] = tested on: Micrococcus flavus ATCC 10240; assay: MIC, agar streak method, Micrococcus flavus ATCC 10240; format: cell-based; conditions: ATCC10240, Heart infusion agar
Excerpt: as §1

[6] = tested on: Mycobacterium smegmatis IFO 13167; assay: MIC, agar streak method, Mycobacterium smegmatis IFO 13167; format: cell-based; conditions: Mycolicibacterium smegmatis, IFO13167, Heart infusion agar
Excerpt: as §1

[7] = tested on: Escherichia coli K-12 IAM 1264; assay: MIC, agar streak method, Escherichia coli K-12 IAM 1264; format: cell-based; conditions: IAM1264, Heart infusion agar
Excerpt: as §1

[8] = tested on: Escherichia coli NIHJ IFO 12734; assay: MIC, agar streak method, Escherichia coli NIHJ IFO 12734; format: cell-based; conditions: IFO12734, Heart infusion agar
Excerpt: as §1

[9] = tested on: Klebsiella pneumoniae IFO 3512; assay: MIC, agar streak method, Klebsiella pneumoniae IFO 3512; format: cell-based; conditions: IFO3512, Heart infusion agar
Excerpt: as §1

[10] = tested on: Proteus vulgaris IAM 1025; assay: MIC, agar streak method, Proteus vulgaris IAM 1025; format: cell-based; conditions: IAM1025, Heart infusion agar
Excerpt: as §1

[11] = tested on: Pseudomonas aeruginosa IFO 12689; assay: MIC, agar streak method, Pseudomonas aeruginosa IFO 12689; format: cell-based; conditions: IFO12689, Heart infusion agar
Excerpt: as §1

[12] = tested on: Serratia marcescens IFO 12648; assay: MIC, agar streak method, Serratia marcescens IFO 12648; format: cell-based; conditions: IFO12648, Heart infusion agar
Excerpt: as §1

[13] = tested on: Candida albicans ATCC 10231; assay: MIC, agar streak method, Candida albicans ATCC 10231; format: cell-based; conditions: ATCC10231, Sabouraud dextrose agar
Excerpt: (§2) | (2) Sabouraud dextrose agar

[14] = tested on: Candida tropicalis ATCC 13803; assay: MIC, agar streak method, Candida tropicalis ATCC 13803; format: cell-based; conditions: ATCC13803, Sabouraud dextrose agar
Excerpt: as §2

[15] = tested on: Saccharomyces cerevisiae ATCC 9763; assay: MIC, agar streak method, Saccharomyces cerevisiae ATCC 9763; format: cell-based; conditions: ATCC9763, Sabouraud dextrose agar
Excerpt: as §2

[16] = Acute intraperitoneal toxicity in mice; conditions: mouse, in vivo, ip, judged 72 hours after a single intraperitoneal injection
P388 leukaemia = assay: Antitumour effect against P388 leukaemia in mice; format: in vivo; conditions: 1×10^6 P388 cells i.p., CDF1 mice
Description: The anthracycline glycosides provided by the present invention were tested against P388 leukaemia in mice. When CDF1 mice are inoculated with 1×10^6 cells of P388 intraperitoneally and each of the antibiotics is administered intraperitoneally on days 1, 5 and 9, the survival time of the treated mice is prolonged as shown in Table 7 hereinafter.

[17] = Staphylococcus aureus 209P Stf, read-out: MIC
[18] = 1.88 mg/kg/day i.p. on days 1, 5 and 9
[19] = 3.75 mg/kg/day i.p. on days 1, 5 and 9
[20] = 7.5 mg/kg/day i.p. on days 1, 5 and 9
[21] = 15 mg/kg/day i.p. on days 1, 5 and 9

| Compound | MIC (Bacillus cereus Ro 179B) | MIC [1] | MIC (Sarcina lutea IAM 1009) | MIC [2] | MIC [4] | MIC [5] | MIC [6] | MIC [7] | MIC [8] | MIC [9] | MIC [10] | MIC [11] | MIC [12] | MIC [13] | MIC [14] | MIC [15] | LD50 at 72 h [16] | Mean survival (T/C, %) (P388 leukaemia; [18]) | Mean survival (T/C, %) (P388 leukaemia; [19]) | Mean survival (T/C, %) (P388 leukaemia; [20]) | other results |
| --- | --- | --- | --- | --- | --- | --- | --- | --- | --- | --- | --- | --- | --- | --- | --- | --- | --- | --- | --- | --- | --- |
| COC(=O)C1c2cc3c(c(O)c2C(OC2CC(N(C)C)C(OC4CC(O)C(OC5CCC(=O)C(C)O5)C(C)O4)C(C)O2)CC1(C)O)C(=O)c1c(O)cccc1C3=O (stereo not shown) [Auramycin A] | 0.39 µg/mL (≈ 0.489 µM) | 3.12 µg/mL (≈ 3.91 µM) | 0.1 µg/mL (≈ 0.125 µM) | 1.56 µg/mL (≈ 1.96 µM) | 3.12 µg/mL (≈ 3.91 µM) | 0.1 µg/mL (≈ 0.125 µM) | 6.25 µg/mL (≈ 7.83 µM) | > 100 µg/mL | > 100 µg/mL | > 100 µg/mL | > 100 µg/mL | > 100 µg/mL | > 100 µg/mL | > 100 µg/mL | > 100 µg/mL | > 100 µg/mL | ~100 mg/kg | 139% | 129% | 134% | MIC [3, 17]: 0.78 µg/mL (≈ 0.978 µM); Mean survival (T/C, %) (P388 leukaemia; [21]): 170% |
| COC(=O)C1c2cc3c(c(O)c2C(OC2CC(N(C)C)C(OC4CC5OC6CC(=O)C(C)OC6OC5C(C)O4)C(C)O2)CC1(C)O)C(=O)c1c(O)cccc1C3=O (stereo not shown) [Auramycin B] | 0.2 µg/mL (≈ 0.251 µM) | 0.78 µg/mL (≈ 0.98 µM) | 0.05 µg/mL (≈ 0.0628 µM) | 0.39 µg/mL (≈ 0.49 µM) | 1.56 µg/mL (≈ 1.96 µM) | 0.05 µg/mL (≈ 0.0628 µM) | 3.12 µg/mL (≈ 3.92 µM) | > 100 µg/mL | > 100 µg/mL | > 100 µg/mL | > 100 µg/mL | > 100 µg/mL | > 100 µg/mL | > 100 µg/mL | > 100 µg/mL | > 100 µg/mL | ~100 mg/kg | 113% | 124% | 149% | MIC [3, 17]: 0.39 µg/mL (≈ 0.49 µM); Mean survival (T/C, %) (P388 leukaemia; [21]): 196% |
| COC(=O)C1c2cc3c(c(O)c2C(OC2CC(N(C)C)C(OC4CC(O)C(OC5CCC(=O)C(C)O5)C(C)O4)C(C)O2)CC1(O)CC(C)=O)C(=O)c1c(O)cccc1C3=O (stereo not shown) [Sulfurmycin A] | 0.2 µg/mL (≈ 0.238 µM) | 0.78 µg/mL (≈ 0.929 µM) | 0.1 µg/mL (≈ 0.119 µM) | 0.78 µg/mL (≈ 0.929 µM) | 3.12 µg/mL (≈ 3.71 µM) | 0.2 µg/mL (≈ 0.238 µM) | 25 µg/mL (≈ 29.8 µM) | > 100 µg/mL | > 100 µg/mL | > 100 µg/mL | > 100 µg/mL | > 100 µg/mL | > 100 µg/mL | > 100 µg/mL | > 100 µg/mL | > 100 µg/mL | ~100 mg/kg | 124% | 134% | 144% | MIC ([3]; Staphylococcus aureus, 209P): 0.2 µg/mL (≈ 0.238 µM); Mean survival (T/C, %) (P388 leukaemia; [21]): 165% |
| COC(=O)C1c2cc3c(c(O)c2C(OC2CC(N(C)C)C(OC4CC5OC6CC(=O)C(C)OC6OC5C(C)O4)C(C)O2)CC1(O)CC(C)=O)C(=O)c1c(O)cccc1C3=O (stereo not shown) [Sulfurmycin B] | 0.39 µg/mL (≈ 0.465 µM) | 0.78 µg/mL (≈ 0.931 µM) | 0.1 µg/mL (≈ 0.119 µM) | 0.78 µg/mL (≈ 0.931 µM) | 1.56 µg/mL (≈ 1.86 µM) | 0.1 µg/mL (≈ 0.119 µM) | 6.25 µg/mL (≈ 7.46 µM) | > 100 µg/mL | > 100 µg/mL | > 100 µg/mL | > 100 µg/mL | > 100 µg/mL | > 100 µg/mL | > 100 µg/mL | > 100 µg/mL | > 100 µg/mL | 25 to 50 mg/kg | 124% | 124% | 155% | MIC ([3]; Staphylococcus aureus, 209P): 0.39 µg/mL (≈ 0.465 µM); Mean survival (T/C, %) (P388 leukaemia; [21]): 165% |
